Reference: patent US11534412B2, “Application of totarol and pharmaceutical composition containing totarol” (Emergopharm SP. Z O.O. SP.K., priority 2017, dated 2022)

Tested on: Gardnerella vaginalis - clinical strain
Experiment: Determination of the MIC value of totarol, broth dilution in 96-well plates with OD and quantitative culture
Type: cell-based
Conditions: for OD, average of 3 measurements: 620 nm
Method: Test of antibacterial activity of totarol using DMI (dimethylisosorbide) as a solvent.
A suspension of 0.5 McF in physiological saline (suspension density 10^8 cfu/ml) was prepared from a 24-hour culture of a standard strain. 1 ml of the suspension was collected to 9 ml of a TSB broth ([…]). Suspensions with a dilution of 10^−6 were prepared in the described way. A suspension with a cell density of 10^5 cfu/ml was selected for further investigations. For each strain, 2 96-well plates were prepared: the first one was intended for the OD measurement, the second one—for quantitative culture on solid media. • A/ to wells B1-D1, B2-D2 and B-D 4-11, 100 µl of the broth were added; • B/ to wells B3-D3, 200 µl of the broth were added; • C/ to wells B1-D1, 1 µl of stock I was added; • D/ to wells B2-D2, 1 µl of stock II was added; • E/ to wells B3-D3, 2 µl of stock III were added. Using a multichannel pipette, 100 µl of the sample were collected from each of the B3-D3 wells and placed in wells B4-D4 (mixing by sucking the content in and letting it out for 5 times). The pipette tips were replaced and 100 µl of the content were collected from of the B4-D4 wells, and placed in wells B5-D5, mixing as previously. These operations were repeated through the wells B11-D11. The content in the B11-D11 wells was mixed, and 100 µl of the fluid were collected and discarded. This way, a series of dilutions of totarol samples in DMI in the range of 0.32% to 0.0004% was obtained. Then, 100 µl of a corresponding bacterial culture were added to the wells B, C, D 1-11. In consequence, a change in the final concentration range occurred, to 0.16%-0.0002%. Control Preparation: • Negative control: 100 µl of the broth+1 pl DMI were added to the Al well. • Positive control (I): 100 µl of the broth with the bacterial culture were added to the wells E1-G1. • Diluent positive control (II): 100 µl of the broth with the bacterial culture+1 pl DMI were added to the wells E2-G2. The OD value in the individual wells was read at the wavelength of 620 nm (read time 0). From the second 96-well plate, a culture was inoculated by a quantitative method from every dilution onto a well with a proper solid medium, and incubated for 24 h at 37° C. under aerobic or anaerobic conditions, depending on the strain. The plates were incubated under aerobic conditions or in an atmosphere of an elevated CO2 concentration (for the strains requiring it) in an incubator at 37° C. The OD was read after 8 h, 16 h, and 24 h, respectively. Before every OD measurement, the contents of the wells were mixed delicately. In parallel to the OD readout, cultures we inoculated from the second 96-well plate, from every dilution, into plates with a proper solid medium, and incubated for 24 h at 37° C., under aerobic or anaerobic conditions. For the analysis of the experimental results, an average value of the OD measurement obtained from three repetitions in the individual times (0, 8, 16, and 24 h) for the individual microbes (Gardnerella vaginalis, Streptococcus agalactiae, Enterococcus faecalis, Lactobacillus gasseri/plantarum) was taken. Additionally, the number of bacteria grown on solid media was taken into account. The results of the tests confirm the specific, concentration-dependent selectiveness, and the high antibacterial effectiveness of totarol against the pathogenic microorganisms: Gardnerella vaginalis, Streptococcus agalactiae, Enterococcus faecalis at low MIC values safe for bacteria of the Lactobacillus genus.

## CC(C)c1c(O)ccc2c1CC[C@H]1C(C)(C)CCC[C@]21C [Totarol, totarol]
G. vaginalis
  MIC value: 0.005%
Bacilli of the Lactobacillus genus versus Gardnerella vaginalis
  difference in values of MIC concentrations: approximately 10 fold
Totarol 0.0002%, 0 h
  viable count by quantitative culture (cfu/ml): 1.5 × 10^5 cfu/ml
  OD, average of 3 measurements: 0.313
Totarol 0.0002%, 8 h
  viable count by quantitative culture (cfu/ml): 2 × 10^5 cfu/ml
  OD, average of 3 measurements: 0.328
Totarol 0.0002%, 16 h
  viable count by quantitative culture (cfu/ml): 2 × 10^5 cfu/ml
  OD, average of 3 measurements: 0.364
Totarol 0.0002%, 24 h
  viable count by quantitative culture (cfu/ml): 2.2 × 10^5 cfu/ml
  OD, average of 3 measurements: 0.398
Totarol 0.0004%, 0 h
  viable count by quantitative culture (cfu/ml): 2.2 × 10^5 cfu/ml
  OD, average of 3 measurements: 0.326
Totarol 0.0004%, 8 h
  viable count by quantitative culture (cfu/ml): 2 × 10^5 cfu/ml
  OD, average of 3 measurements: 0.334
Totarol 0.0004%, 16 h
  viable count by quantitative culture (cfu/ml): 4.9 × 10^5 cfu/ml
  OD, average of 3 measurements: 0.362
Totarol 0.0004%, 24 h
  viable count by quantitative culture (cfu/ml): 3.9 × 10^5 cfu/ml
  OD, average of 3 measurements: 0.390
Totarol 0.0007%, 0 h
  viable count by quantitative culture (cfu/ml): 9 × 10^4 cfu/ml
  OD, average of 3 measurements: 0.315
Totarol 0.0007%, 8 h
  viable count by quantitative culture (cfu/ml): 6 × 10^4 cfu/ml
  OD, average of 3 measurements: 0.307
Totarol 0.0007%, 16 h
  viable count by quantitative culture (cfu/ml): 2.1 × 10^5 cfu/ml
  OD, average of 3 measurements: 0.326
Totarol 0.0007%, 24 h
  viable count by quantitative culture (cfu/ml): 3.8 × 10^5 cfu/ml
  OD, average of 3 measurements: 0.346
Totarol 0.0013%, 0 h
  viable count by quantitative culture (cfu/ml): 1 × 10^5 cfu/ml
  OD, average of 3 measurements: 0.321
Totarol 0.0013%, 8 h
  viable count by quantitative culture (cfu/ml): 2.7 × 10^4 cfu/ml
  OD, average of 3 measurements: 0.314
Totarol 0.0013%, 16 h
  viable count by quantitative culture (cfu/ml): 6.2 × 10^5 cfu/ml
  OD, average of 3 measurements: 0.318
Totarol 0.0013%, 24 h
  viable count by quantitative culture (cfu/ml): 1.2 × 10^5 cfu/ml
  OD, average of 3 measurements: 0.322
Totarol 0.0025%, 0 h
  viable count by quantitative culture (cfu/ml): 1.3 × 10^5 cfu/ml
  OD, average of 3 measurements: 0.312
Totarol 0.0025%, 8 h
  viable count by quantitative culture (cfu/ml): 5 × 10^4 cfu/ml
  OD, average of 3 measurements: 0.311
Totarol 0.0025%, 16 h
  viable count by quantitative culture (cfu/ml): 5.2 × 10^4 cfu/ml
  OD, average of 3 measurements: 0.314
Totarol 0.0025%, 24 h
  viable count by quantitative culture (cfu/ml): 2.3 × 10^4 cfu/ml
  OD, average of 3 measurements: 0.317
Totarol 0.005%, 0 h
  viable count by quantitative culture (cfu/ml): 3.1 × 10^5 cfu/ml
  OD, average of 3 measurements: 0.318
Totarol 0.005%, 8 h
  viable count by quantitative culture (cfu/ml): 0 cfu/ml
  OD, average of 3 measurements: 0.318
Totarol 0.005%, 16 h
  viable count by quantitative culture (cfu/ml): 0 cfu/ml
  OD, average of 3 measurements: 0.323
Totarol 0.005%, 24 h
  viable count by quantitative culture (cfu/ml): 0 cfu/ml
  OD, average of 3 measurements: 0.327
Totarol 0.01%, 0 h
  viable count by quantitative culture (cfu/ml): 1.6 × 10^5 cfu/ml
  OD, average of 3 measurements: 0.319
Totarol 0.01%, 8 h
  viable count by quantitative culture (cfu/ml): 0 cfu/ml
  OD, average of 3 measurements: 0.323
Totarol 0.01%, 16 h
  viable count by quantitative culture (cfu/ml): 0 cfu/ml
  OD, average of 3 measurements: 0.325
Totarol 0.01%, 24 h
  viable count by quantitative culture (cfu/ml): 0 cfu/ml
  OD, average of 3 measurements: 0.328
Totarol 0.02%, 0 h
  viable count by quantitative culture (cfu/ml): 2.1 × 10^5 cfu/ml
  OD, average of 3 measurements: 0.344
Totarol 0.02%, 8 h
  viable count by quantitative culture (cfu/ml): 0 cfu/ml
  OD, average of 3 measurements: 0.332
Totarol 0.02%, 16 h
  viable count by quantitative culture (cfu/ml): 0 cfu/ml
  OD, average of 3 measurements: 0.333
Totarol 0.02%, 24 h
  viable count by quantitative culture (cfu/ml): 0 cfu/ml
  OD, average of 3 measurements: 0.334
Totarol 0.04%, 0 h
  viable count by quantitative culture (cfu/ml): 3.7 × 10^5 cfu/ml
  OD, average of 3 measurements: 0.460
Totarol 0.04%, 8 h
  viable count by quantitative culture (cfu/ml): 0 cfu/ml
  OD, average of 3 measurements: 0.416
Totarol 0.04%, 16 h
  viable count by quantitative culture (cfu/ml): 0 cfu/ml
  OD, average of 3 measurements: 0.411
Totarol 0.04%, 24 h
  viable count by quantitative culture (cfu/ml): 0 cfu/ml
  OD, average of 3 measurements: 0.379
Totarol 0.08%, 0 h
  viable count by quantitative culture (cfu/ml): 6.1 × 10^5 cfu/ml
  OD, average of 3 measurements: 0.740
Totarol 0.08%, 8 h
  viable count by quantitative culture (cfu/ml): 0 cfu/ml
  OD, average of 3 measurements: 0.523
Totarol 0.08%, 16 h
  viable count by quantitative culture (cfu/ml): 0 cfu/ml
  OD, average of 3 measurements: 0.455
Totarol 0.08%, 24 h
  viable count by quantitative culture (cfu/ml): 0 cfu/ml
  OD, average of 3 measurements: 0.441
Totarol 0.16%, 0 h
  viable count by quantitative culture (cfu/ml): 1.4 × 10^5 cfu/ml
  OD, average of 3 measurements: 0.822
Totarol 0.16%, 8 h
  viable count by quantitative culture (cfu/ml): 0 cfu/ml
  OD, average of 3 measurements: 0.564
Totarol 0.16%, 16 h
  viable count by quantitative culture (cfu/ml): 0 cfu/ml
  OD, average of 3 measurements: 0.451
Totarol 0.16%, 24 h
  viable count by quantitative culture (cfu/ml): 0 cfu/ml
  OD, average of 3 measurements: 0.438
